# Earlier results in patent US20210267955A1, “LOW DOSE ORAL PHARMACEUTICAL COMPOSITION OF PIRFENIDONE OR SALT THEREOF” (Zenvision Pharma LLP, priority 2018, published 2021).
# Conditions: methanol, ethyl alcohol, acetone, chloroform vs water and 1.0 N hydrochloric acid
smiles,measurement,value
"Cc1ccc(=O)n(-c2ccccc2)c1 [Pirfenidone, 5-methyl-1-phenyl-2-(1H)-pyridone]",solubility (qualitative),"more soluble in methanol, ethyl alcohol, acetone and chloroform than in water and 1.0 N hydrochloric acid"
